Entries after “also recorded” stand apart in the source; their conditions may differ.
Tests used:
Assay type in all cases: in vivo, C57BL6 mice
gut microbiota = assay: Gut microbiota diversity (Shannon alpha diversity) from shotgun metagenomic sequencing of stool of treated mice; conditions: stools at end
Protocol: (§1) In the methods described for each of these examples, C57BL6 mice at 6 weeks of age were allowed to be appropriately acclimated before the start of the change in diet and treatments. For Experiment 1 (Example 1), thirty-two mice were evenly distributed into four groups with Group 1 as the control diet, no treatment, Group 2 as the high-fat diet, treat with DMSO control, Group 3 as the high-fat diet, treated with 12.5 μg of Ascr #7/mouse per injection (0.5 mg/kg dose assuming a 25 gm mouse), Group 4 as the high-fat diet, treated with 4.1 μg Ascr #9/mouse per injection (0.164 mg/kg dose assuming a 25 gm mouse). […]
(§2) DNA was extracted using the Qiagen MagAttract PowerSoil DNA KF kit (Formerly MO Bio PowerSoil DNA Kit) using a KingFisher robot. DNA quality was evaluated visually via gel electrophoresis and quantified using a Qubit 3.0 fluorometer (Thermo-Fischer, Waltham, Mass., USA). […]
(§3) Paired-end sequencing (150 bp×2) was done on a NextSeq 500 in medium-output mode. Shotgun metagenomic sequence reads were processed with the Sunbeam pipeline. […] Processing took part in four steps: adapter removal, read trimming, low-complexity reads removal, and host-sequence read removal. […] Low-complexity sequences were detected with Komplexity v0.3.6.
(§4) The remaining reads were taxonomically classified using Kraken2 with the MiniKraken2_v1 database. […]

[1] = system: Bifidobacterium (e.g., Bifidobacterium catenulatum); assay: Differential abundance of Bifidobacterium in gut microbiota of treated mice (stool sequencing); conditions: stools at end
Protocol: as §1, §2, §3, §4

Akkermansia = assay: Differential abundance of Akkermansia in gut microbiota of treated mice (stool sequencing); conditions: Experiment 1, mice, 31 days of treatment, stools at end, vs control (FIG. 9)
Protocol: as §1, §2, §3, §4

Adlercreutzia = assay: Differential abundance of Adlercreutzia in gut microbiota of treated mice (stool sequencing); conditions: Experiment 1, mice, 31 days of treatment, stools at end, vs control (FIG. 9)
Protocol: as §1, §2, §3, §4

[2] = Stool consistency (Bristol Stool Chart) of treated mice; conditions: Experiment 3, mice, 12.5 μg/mouse IP, stools at end, vs untreated control (FIG. 10)
Protocol: For Experiment 3, ten mice were assigned Group 7 to be treated with DMSO control. Eight mice were assigned to Group 8 to be treated with 12.5 μg of Ascr #7/mouse per injection (0.5 mg/kg dose assuming a 25 gm mouse). Nine mice were assigned to Group 9 to be treated with 12.5 μg of Compound 1/mouse per injection (0.5 mg/kg dose assuming a 25 gm mouse). To make the master stocks, Ascr #7 and Compound 1 were dissolved in DMSO to make 10 μg/uL of the Ascr #7 and Compound 1 master stocks and 12.5 μL of each master stocks were aliquoted into glass vials for each day of injection. Mice from each group were IP injected three times a week for 3 weeks and one day for a total of 10 injections. On each day of IP injection, 987.5 μL of ultra-pure water is added to each master stocks to make 0.125 μg/uL of Ascr #7 and Compound 1 working stocks and 100 μL of each was IP injected into mice. As will be described in greater detail below, Compound 1 refers to the ascaroside derisive:
The methods and compositions described herein may also be used to treat constipation. Constipation, which accompanies various diseases, may be a symptom of underlying defects in either transit of fecal mass through the gut or defecation, a commonly diagnosed functional gastrointestinal disorder. […]

C[C@H](CC/C=C/C(=O)O)O[C@@H]1O[C@@H](C)[C@H](O)C[C@H]1O [Ascr #7]
alpha diversity of the gut microbiota (Shannon's diversity index) (gut microbiota; Experiment 3, mice, 12.5 μg/mouse IP three times a week, 10 injections, vs DMSO control (FIG. 3)): increased alpha diversity; also recorded: substantial increase in diversity
amount of Bifidobacter in the gut microbiota ([1]; Experiment 1, mice, 31 days of treatment, vs control (FIG. 9)): increases
amount of Bifidobacterium catenulatum in the gut microbiota ([1]; Experiment 3, mice, vs control (FIG. 8)): specific increase; also recorded: increased significantly
amount of Akkermansia in the gut microbiota (Akkermansia): increases; also recorded: increase in the overall amount
amount of Adlercreutzia in the gut microbiota (Adlercreutzia): increases; also recorded: increase in the overall amount
proportion of feces with Type 4 stools (smooth and soft, Bristol Stool Chart) [2]: significantly higher proportion of feces with Type 4 stools

C[C@H](CCC(=O)O)O[C@@H]1O[C@@H](C)[C@H](O)C[C@H]1O [Ascr #9]
alpha diversity of the gut microbiota (Shannon's diversity index) (gut microbiota; Experiment 1, high-fat diet mice, 4.1 μg/mouse IP three times a week for 31 days, vs control (FIG. 4)): increase in alpha diversity; also recorded: increased
amount of Akkermansia in the gut microbiota (Akkermansia): increase in the overall amount
amount of Adlercreutzia in the gut microbiota (Adlercreutzia): increase in the overall amount

C[C@H](CC/C=C/C(=O)OC(C)(C)C)O[C@@H]1O[C@@H](C)[C@H](O)C[C@H]1O [Compound 1, tert-butyl (2E,6R)-6-{[(2R,3R,5R,6S)-3,5-dihydroxy-6-methyloxan-2-yl]oxy}hept-2-enoate]
proportion of feces with Type 4 stools (smooth and soft, Bristol Stool Chart) [2]: significantly higher proportion of feces with Type 4 stools

Source: patent US20220409650A1, “COMPOSITIONS AND METHODS FOR ASCAROSIDE MODIFICATION OF MAMMALIAN MICROBIOTA” (Holoclara, Inc., priority 2019, published 2022)
